Results taken from patent US10894784B2, “Heteroarylbenzimidazole compounds” (BAYER PHARMA AKTIENGESELLSCHAFT, priority 2015, dated 2021).

Target: TBK1 (Homo sapiens (Human), UniProt Q9UHD2)
Test: TBK1 low ATP kinase assay (in vitro assay 1)
Format: biochemical
Conditions: in vitro assay 1, read-out: TBK1 low ATP kinase assay IC50

Chain of TBK1 (Q9UHD2 whole entry): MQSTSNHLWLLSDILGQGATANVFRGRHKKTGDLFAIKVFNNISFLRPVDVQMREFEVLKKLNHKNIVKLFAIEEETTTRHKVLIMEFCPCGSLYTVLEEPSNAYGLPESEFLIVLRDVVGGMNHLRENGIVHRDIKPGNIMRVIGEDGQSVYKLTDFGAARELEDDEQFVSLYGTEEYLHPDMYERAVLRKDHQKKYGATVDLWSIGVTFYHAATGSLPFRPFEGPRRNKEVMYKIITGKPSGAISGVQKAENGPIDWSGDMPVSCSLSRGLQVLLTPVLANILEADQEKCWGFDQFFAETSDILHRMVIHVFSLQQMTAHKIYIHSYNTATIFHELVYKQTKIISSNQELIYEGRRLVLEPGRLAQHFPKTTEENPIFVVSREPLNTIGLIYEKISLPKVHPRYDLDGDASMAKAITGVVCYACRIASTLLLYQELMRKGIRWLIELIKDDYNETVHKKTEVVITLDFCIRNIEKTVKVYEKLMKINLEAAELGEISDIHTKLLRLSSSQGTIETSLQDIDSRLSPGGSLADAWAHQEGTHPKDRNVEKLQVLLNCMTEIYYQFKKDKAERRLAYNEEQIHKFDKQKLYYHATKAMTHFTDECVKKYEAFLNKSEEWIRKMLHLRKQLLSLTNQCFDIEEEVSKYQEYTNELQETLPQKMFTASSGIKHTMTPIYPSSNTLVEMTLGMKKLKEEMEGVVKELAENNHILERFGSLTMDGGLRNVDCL

| Structure (SMILES) | IC50 |
| --- | --- |
| Cc1noc(-c2ccc3nc(Nc4cc(CN5C[C@@H](C)N(C(=O)OC(C)(C)C)C[C@@H]5C)ccn4)[nH]c3c2)n1 [Example 16.02.01, tert-butyl (2R,5S)-2,5-dimethyl-4-[(2-{[6-(3-methyl-1,2,4-oxadiazol-5-yl)-1H-benzimidazol-2-yl]amino}pyridin-4-yl)methyl]piperazine-1-carboxylate] | 2260 nM |
| CN(C)c1cc(-c2ccc3nc(Nc4cc(CN5CCN(C(=O)OC(C)(C)C)CC5)ccn4)[nH]c3c2)ccn1 [Example 135.01, tert-butyl 4-{[2-({6-[2-(dimethylamino)pyridin-4-yl]-1H-benzimidazol-2-yl}amino)pyridin-4-yl]methyl}piperazine-1-carboxylate] | 71 nM |
| CC(c1ccnc(Nc2nc3ccc(-c4cc(C(F)(F)F)ncn4)cc3[nH]2)c1)N1CCN(C(=O)C2CC2)CC1 (racemic) [Example 29.01.02, (rac)-cyclopropyl(4-{1-[2-({6-[6-(trifluoromethyl)pyrimidin-4-yl]-1H-benzimidazol-2-yl}amino)pyridin-4-yl]ethyl}piperazin-1-yl)methanone] | 3.47 nM |
| Cc1nc(Cl)cc(-c2ccc3nc(Nc4cc(CN5CCN(C(=O)OC(C)(C)C)CC5)ccn4)[nH]c3c2)n1 [Example 186.01, tert-butyl 4-[(2-{[6-(6-chloro-2-methylpyrimidin-4-yl)-1H-benzimidazol-2-yl]amino}pyridin-4-yl)methyl]piperazine-1-carboxylate] | 59.1 nM |
| Cn1ccc(-c2ccc3nc(Nc4cc(CN5CCN(C(=O)C6CCC6)CC5)ccn4)[nH]c3c2)n1 [Example 40.04, cyclobutyl{4-[(2-{[6-(1-methyl-1H-pyrazol-3-yl)-1H-benzimidazol-2-yl]amino}pyridin-4-yl)methyl]piperazin-1-yl}methanone] | 1390 nM |
| COc1cnccc1-c1ccc2nc(Nc3cc(CN4CCN(C(=O)C5CCC5)CC4)ccn3)[nH]c2c1OCC(C)C [Example 50.03, cyclobutyl{4-[(2-{[6-(3-methoxypyridin-4-yl)-7-(2-methylpropoxy)-1H-benzimidazol-2-yl]amino}pyridin-4-yl)methyl]piperazin-1-yl}methanone] | 645 nM |
| CC(c1ccnc(Nc2nc3ccc(-c4cc(OCC(F)(F)C(F)(F)F)ncn4)cc3[nH]2)c1)N1CCN(C(=O)C2CC2)CC1 (single isomer, unassigned) [Example 166.03, cyclopropyl(4-{(1R or 1S)-1-[2-({6-[6-(2,2,3,3,3-pentafluoropropoxy)pyrimidin-4-yl]-1H-benzimidazol-2-yl}amino)pyridin-4-yl]ethyl}piperazin-1-yl)methanone] | 21.1 nM |
| Cc1cc(-c2ccc3nc(Nc4cc(CN5CCN(C(=O)CC6CC6)CC5)ccn4)[nH]c3c2)ccn1 [Example 01.04, 2-cyclopropyl-1-{4-[(2-{[6-(2-methylpyridin-4-yl)-1H-benzimidazol-2-yl]amino}pyridin-4-yl)methyl]piperazin-1-yl}ethanone] | 55.5 nM |
| COc1c(-c2ccc3nc(Nc4cc(CN5CCN(C(=O)C6CC6)CC5)ccn4)[nH]c3c2)ncnc1N(C)CC1CC1 [Example 110.02, cyclopropyl[4-({2-[(6-{6-[(cyclopropylmethyl)(methyl)amino]-5-methoxypyrimidin-4-yl}-1H-benzimidazol-2-yl)amino]pyridin-4-yl}methyl)piperazin-1-yl]methanone] | 30 nM |
| COc1cncc(-c2ccc3nc(Nc4cc(CN5CCN(C(=O)C6CC6)CC5)ccn4)[nH]c3c2)n1 [Example 48.01, cyclopropyl{4-[(2-{[6-(6-methoxypyrazin-2-yl)-1H-benzimidazol-2-yl]amino}pyridin-4-yl)methyl]piperazin-1-yl}methanone] | 193 nM |
| Cc1c(-c2ccc3nc(Nc4cc(CN5CCN(C(=O)CC(F)(F)F)CC5)ccn4)[nH]c3c2)ncnc1C(F)(F)F [Example 183.02, 3,3,3-trifluoro-1-(4-{[2-({6-[5-methyl-6-(trifluoromethyl)pyrimidin-4-yl]-1H-benzimidazol-2-yl}amino)pyridin-4-yl]methyl}piperazin-1-yl)propan-1-one] | 2100 nM |
| Cc1noc(-c2ccc3nc(Nc4cc(CN5CCN(C(=O)C6CCC6)C[C@H]5C)ccn4)[nH]c3c2)n1 [Example 16.03.05, cyclobutyl{(3R)-3-methyl-4-[(2-{[6-(3-methyl-1,2,4-oxadiazol-5-yl)-1H-benzimidazol-2-yl]amino}pyridin-4-yl)methyl]piperazin-1-yl}methanone] | 84.7 nM |
| CN(CC(F)(F)F)c1cc(-c2ccc3nc(Nc4cc(CN5CCN(C(=O)CC(F)(F)F)CC5)ccn4)[nH]c3c2)ncn1 [Example 146.02, 3,3,3-trifluoro-1-[4-({2-[(6-{6-[methyl(2,2,2-trifluoroethyl)amino]pyrimidin-4-yl}-1H-benzimidazol-2-yl)amino]pyridin-4-yl}methyl)piperazin-1-yl]propan-1-one] | 9.8 nM |
| CC(c1ccnc(Nc2nc3ccc(-c4cc(OCC(F)(F)F)ncn4)cc3[nH]2)c1)N1CCN(C(=O)C2CC2(F)F)CC1 (single isomer, unassigned) [Example 119.05, ((1RS)-2,2-difluorocyclopropyl)(4-{(1R or 1S)-1-[2-({6-[6-(2,2,2-trifluoroethoxy)pyrimidin-4-yl]-1H-benzimidazol-2-yl}amino)pyridin-4-yl]ethyl}piperazin-1-yl)methanone] | 6.35 nM |
| N#Cc1cc(-c2ccc3nc(Nc4cc(CN5CCN(C(=O)CC(F)(F)F)CC5)ccn4)[nH]c3c2)ncn1 [Example 77.01, 6-{2-[(4-{[4-(3,3,3-trifluoropropanoyl)piperazin-1-yl]methyl}pyridin-2-yl)amino]-1H-benzimidazol-6-yl}pyrimidine-4-carbonitrile] | 9.2 nM |
| CC(C)Nc1ncnc(-c2ccc3nc(Nc4cc(CN5CCN(C(=O)C6CC6)CC5)ccn4)[nH]c3c2)c1F [Example 193.03, cyclopropyl(4-{[2-({6-[5-fluoro-6-(propan-2-ylamino)pyrimidin-4-yl]-1H-benzimidazol-2-yl}amino)pyridin-4-yl]methyl}piperazin-1-yl)methanone] | 17.8 nM |
| CC(C)N(C)c1cc(-c2ccc3nc(Nc4cc(CN5CCN(C(=O)CC(F)(F)F)CC5)ccn4)[nH]c3c2)ncn1 [Example 153.02, 3,3,3-trifluoro-1-[4-({2-[(6-{6-[methyl(propan-2-yl)amino]pyrimidin-4-yl}-1H-benzimidazol-2-yl)amino]pyridin-4-yl}methyl)piperazin-1-yl]propan-1-one] | 5.9 nM |
| COc1c(-c2ccc3nc(Nc4cc(C(C)N5CCN(C(=O)OC(C)(C)C)CC5)ccn4)[nH]c3c2)ncnc1N1CCCC1 (single isomer, unassigned) [Example 112.01, tert-butyl 4-{(1R or S)-1-[2-({6-[5-methoxy-6-(pyrrolidin-1-yl)pyrimidin-4-yl]-1H-benzimidazol-2-yl}amino)pyridin-4-yl]ethyl}piperazine-1-carboxylate] | 8.2 nM |
| Cc1nccc(-c2ccc3nc(Nc4cc(CN5CCN(C(=O)CC(F)(F)F)CC5)ccn4)[nH]c3c2)n1 [Example 24.01.01, 3,3,3-trifluoro-1-{4-[(2-{[6-(2-methylpyrimidin-4-yl)-1H-benzimidazol-2-yl]amino}pyridin-4-yl)methyl]piperazin-1-yl}propan-1-one] | 35.4 nM |
| Cc1c[nH]c(-c2ccc3nc(Nc4cc(CN5CCN(C(=O)C6CC6)CC5)ccn4)[nH]c3c2)n1 [Example 43.02, cyclopropyl{4-[(2-{[6-(4-methyl-1H-imidazol-2-yl)-1H-benzimidazol-2-yl]amino}pyridin-4-yl)methyl]piperazin-1-yl}methanone] | 1840 nM |
| Cc1noc(-c2ccc3nc(Nc4cc(CN5CCN(c6ccc(F)cc6F)CC5)ccn4)[nH]c3c2)n1 [Example 101.11, N-(4-{[4-(2,4-difluorophenyl)piperazin-1-yl]methyl}pyridin-2-yl)-6-(3-methyl-1,2,4-oxadiazol-5-yl)-1H-benzimidazol-2-amine] | > 20000 nM |
| COc1cncnc1-c1ccc2nc(Nc3cc(CN4CCN(S(=O)(=O)N(C)C)CC4)ccn3)[nH]c2c1 [Example 35.01.15, 4-[(2-{[6-(5-methoxypyrimidin-4-yl)-1H-benzimidazol-2-yl]amino}pyridin-4-yl)methyl]-N,N-dimethylpiperazine-1-sulfonamide] | 38 nM |
| COc1cc(-c2ccc3nc(Nc4cc(CN5CCN(C(=O)CC(F)(F)F)CC5)ccn4)[nH]c3c2)ncn1 [Example 163.02, 3,3,3-trifluoro-1-{4-[(2-{[6-(6-methoxypyrimidin-4-yl)-1H-benzimidazol-2-yl]amino}pyridin-4-yl)methyl]piperazin-1-yl}propan-1-one] | 19 nM |
| CCC(C)c1noc(-c2ccc3nc(Nc4cc(CN5CCN(C(=O)C6CC6)CC5)ccn4)[nH]c3c2)n1 (stereo not drawn) [Example 20.01, (4-{[2-({6-[3-(butan-2-yl)-1,2,4-oxadiazol-5-yl]-1H-benzimidazol-2-yl}amino)pyridin-4-yl]methyl}piperazin-1-yl)(cyclopropyl)methanone] | 685 nM |
| O=C(C1CC1)N1CCN(Cc2ccnc(Nc3nc4ccc(-c5cnn(CC6CC6)c5)cc4[nH]3)c2)CC1 [Example 39.01.03, cyclopropyl(4-{[2-({6-[1-(cyclopropylmethyl)-1H-pyrazol-4-yl]-1H-benzimidazol-2-yl}amino)pyridin-4-yl]methyl}piperazin-1-yl)methanone] | 5.35 nM |
| O=C(C1CC1)N1CCN(Cc2ccnc(Nc3nc4ccc(-c5ncnc(NC6CCC6)c5F)cc4[nH]3)c2)CC1 [Example 194.03, (4-{[2-({6-[6-(cyclobutylamino)-5-fluoropyrimidin-4-yl]-1H-benzimidazol-2-yl}amino)pyridin-4-yl]methyl}piperazin-1-yl)(cyclopropyl)methanone] | 49.4 nM |
| O=C(C1CC1)N1CCN(Cc2ccnc(Nc3nc4ccc(-c5nc(C6CC6)c[nH]5)cc4[nH]3)c2)CC1 [Example 43.03, cyclopropyl{4-[(2-{[6-(4-cyclopropyl-1H-imidazol-2-yl)-1H-benzimidazol-2-yl]amino}pyridin-4-yl)methyl]piperazin-1-yl}methanone] | 696 nM |
